Experimental data: patent publication US9302993B2, “8-hydroxy quinoline derivatives” (PRANA BIOTECHNOLOGY LIMITED, priority 2002, dated 2016)

Key:
[1] = tested on: moderately severe AD patients; test: Phase II clinical trial of PBT-1 in Alzheimer's disease (Example 21); assay type: in vivo, human; details: for Steady state pre-dose levels of PBT-1: blood; for difference in mean change from baseline ADAS-cog score of PBT-1 over placebo: more-severely affected groups
Text: The performance of the less-severely affected group (ADAS-cog<25) deteriorated negligibly over this interval, so cognitive changes could not be discriminated in this stratum.
The study took place at the AD clinical trials unit, Mental Health Research Institute of Victoria and at the Royal Melbourne Hospital. Criteria for inclusion in the study were: informed consent; a diagnosis of probable AD by NINCDS-ADRDA criteria (McKhann et al., 1984); AD Assessment Scale-cognitive (ADAS-cog) (Rosen et al., 1984) score of 18-45; Mini Mental State Examination (MMSE) (Folstein et al., 1975) score of 10-24; on donepezil 5 mg or 10 mg for at least 6 months; relative or carrier willing and able to support the trial; able to complete trial examinations; primary sensorial functions intact.
The study was a double blind, placebo-controlled, parallel group randomized design. […] The duration of the study was 36 weeks.
Screening procedures consisted of a complete medical history, physical, neurological and ophthalmic examination, blood and urine tests and psychometric tests (ADAS-cog, MMSE). Nerve conduction tests and visual evoked responses were conducted between the screening and baseline visits to provide a baseline measurement. Blood was collected for ApoE allotyping, baseline plasma levels of metals and Aβ prior to randomization. All patients continued their study entry dose of donepezil and all patients received 100 mg vitamin B12 intramuscularly every four weeks.
Blood samples were collected by antecubital venepuncture except on weeks 12, 24 and 36 when they were collected by an indwelling catheter. […] Zn data from these intervals were therefore omitted from analysis.
The primary clinical efficacy variable was a change from baseline score on the ADAS-cog conducted at baseline and at weeks 4, 12, 24 and 36. This measure was chosen to allow comparability of treatment effects with current therapeutics such as donepezil, where efficacy trials also used ADAS-cog as their primary outcome measure (Rogers et al., 1998). Although numerous neuropsychological tests could be considered as secondary measures, it was necessary to avoid fatiguing the subjects at review. Therefore the only other cognitive test was the Mini-Mental State Exam (MMSE). The CIBIC+ (clinician interview based impression of change incorporating caregiver information), a subjective observational index was also conducted. Plasma Aβ, and plasma zinc and copper were all taken every four weeks.
Polystyrene plates were coated with mAb G210 (for Aβ40) or mAb G211 (for Aβ42). Plates were washed and biotinylated mAb WO2 was added. Bound antibody was detected with streptavidin-labelled Europium (Perkin Elmer, Vic Australia). The values obtained from triplicated wells were calculated based on standard curves generated on each plate. Plasma samples supplemented with synthetic Aβ1-40 and Aβ1-42 were also assayed to confirm measurement reliability across the concentration range of interest.
Metals were measured by inductively coupled plasma mass spectrometry as previously described (Cherny et al., 2001).
Standard adverse event reporting was conducted and biochemical tests, renal and liver function, complete blood examination, serum vitamin B12 and folate levels were documented at each visit. To assess for peripheral and optic neuropathy a neurological examination was conducted at each visit, and visual evoked responses, nerve conduction studies and ophthalmic examination were conducted at screening, week 16 and prior to the final trial visit. An ECG was done at screening and weeks 12, 24 and 36.
Data monitoring and management were undertaken by independent contractors (Kendle International and Health Research Solutions, Melbourne). Evidence for efficacy was indicated by a significant difference in change from baseline between treatment arms. […]

[2] = tested on: APP2576 transgenic mouse; details: previous studies on transgenic mice, 20-30 mg/kg orally daily five days per week, 2-3 months; cited from earlier work

## Oc1c(I)cc(Cl)c2cccnc12 [PBT-1]
[1]; AD patients
  effect on plasma Cu: no effect
  elevation of total plasma Zn: ≈ 30%
[1]; total daily dosage 250 mg
  Steady state pre-dose levels of PBT-1: 4.03 ± 2.10 µg/mL
[1]; total daily dosage 500 mg
  Steady state pre-dose levels of PBT-1: 6.74 ± 3.70 µg/mL
[1]; total daily dosage 750 mg
  Steady state pre-dose levels of PBT-1: 7.60 ± 2.15 µg/mL
[1]; from week 20 onwards
  Plasma Aβ42 change from baseline: significant decline from baseline
[1]; week 24
  difference in mean change from baseline ADAS-cog score of PBT-1 over placebo: 7.37
[1]; week 36
  difference in mean change from baseline ADAS-cog score of PBT-1 over placebo: 6.36
[1]; over 36 weeks, more-severely affected patients (baseline ADAS-cog≧25)
  effect of treatment in preventing cognitive deterioration: statistically significant
[2]
  inhibiting Aβ accumulation: markedly effective
